Where “and” joins values, the source holds several entries; their conditions need not be identical. Equal values may be shown once. Read-outs that look alike come from different tables or passages of the source.
Assay: Pharmacokinetic study in mice, plasma and brain structures, LC/MS/MS
Assay type: in vivo, Swiss albino mice
Conditions: 1.25 mg/kg i.p.; for Kp: ratio of AUC values
Experimental: Blood samples from the Swiss albino mice were collected at 0 (pre-dose), 5, 15, 30, 60, 120, 240 and 480 min after a compound administration. The blood samples and brain structures were collected under general anesthesia induced by i.p. injection of 50 mg/kg ketamine plus 8 mg/kg xylazine. The blood samples were taken into heparinized tubes, immediately centrifuged at 1000 × g for 10 min, and plasma was collected. The plasma samples and brain structures were immediately frozen at -30°C and -80°C, respectively.
The plasma and tissue sample pretreatment procedure involved acetonitrile precipitation. A 5 μL aliquot of the IS working solution (100 ng/mL) was added to 50 μL of the collected mouse plasma sample, which was then vortex-mixed for 10 seconds. Thereafter, 200 μL of acetonitrile was added, vortexed during 20 min, and then centrifuged (1000 × g, 10 min). The supernatant (100 μL) was then transferred to insert placed in an autosampler vial, and a 10 μL volume of this was injected onto the HPLC column. Tissue samples were thawed before use, and whole hippocampus, striatum and frontal cortex were weighted and placed in a glass mortar and pestle tissue grinder and homogenized with an appropriate amount of phosphate buffer (pH 7.4) in 1:5 ratio. Afterward, 50 μL of tissue homogenates were transferred to new Eppendorf tubes and spiked with 5 μL of the internal standard working solution. All samples were stored on ice during the preparation process. This was followed by procedures like those described above.
The LC/ESI-MS/MS experiments were performed on an Applied Biosystems/MDS Sciex (Concord, Ontario, Canada) API 2000 triple quadrupole mass spectrometer equipped with an electrospray (ESI) ionization interface. This instrument was coupled to an Agilent 1100 (Agilent Technologies, Waldbronn, Germany) LC system. Data acquisition and processing were accomplished using Sciex Analyst 1.4.2 data collection and integration software.
An XBridge C18 (2.1 x 30 mm, 3.5 μm) analytical column (Waters, Milford, Massachusetts, USA) was used for compound separation. The temperatures of the column thermostat and the autosampler were set at 25°C and 10°C, respectively. The mobile phase consisted of a mixture of acetonitrile with addition of 0.1% formic acid (solvent A) and water with addition of 0.1% formic acid (solvent B) and was set at a flow rate of 0.6 mL/min. Starting amount of solvent A is 10%, isocratic elution from 0 to 3 min, and then gradient up to 90% of solvent A, and maintained to 10 min, and then gradient down to 10% of solvent A, and maintained to 15 min.
The ion source parameters were as follows: ion spray voltage: 5500 V; nebulizer gas (gas 1): 20 psi; turbo gas (gas 2): 25 psi; temperature of the heated nebulizer: 400°C; curtain gas: 40 psi; collision gas: 6 psi. Mass spectra were acquired by SRM with precursor/predominant product ion transitions for each analyte. The mass spectral Q1→Q3 transitions monitored for AZ-853, AZ-861 and for IS (nebivolol), were m/z 453.9→235.1; 504.3→285.1 and 406.2→151.1, respectively. The peak widths of precursor and product ions were set to 0.7 full width half-height. Quantification was done via peak area ratio.
Pharmacokinetic parameters were calculated by a non-compartmental approach from the average concentration values, using Phoenix WinNonlin software (Certara, Princeton, NJ 08540 USA). First order elimination rate constant (λz) was calculated by linear regression of time versus log concentration. Next, the area under the mean serum and tissue concentration versus time curve (AUC0→t) was estimated using the log-linear trapezoidal rule (1), where Ci is the plasma concentration measured at t1.
AUC0→t=∑i=1n((Ci+Ci+1)/2)∙(ti+1−ti). (1)
Area under the first-moment curve (AUMC0→t) was estimated by calculation of the total area under the first-moment curve using the Eq (2), where Ci is the plasma concentration measured at t1. AUMC0→t=∑i=1n((ti∙Ci+ti+1∙Ci+1)/2)∙(ti+1−ti). […]

t0.5: ca. 1.5 h | t0.5, frontal cortex: 91.6 min | t0.5, hippocampus: 110.4 min | t0.5, striatum: 83 min | t0.5, plasma (1.25 mg/kg): 97 min and 97.5 min | Concentration, plasma (individual animals) (5 min, 1.25 mg/kg): 45.82 ng/mL | Vd/F (plasma, 1.25 mg/kg): 83 L/kg and 83.4 L/kg | Kp (Swiss albino, mouse, frontal cortex, ip, read-out: Brain structure-to-plasma concentration ratio, frontal cortex (FC/P)): 10.5 | AUC(0-t) (Swiss albino, mouse, frontal cortex, ip, read-out: AUC0→t, frontal cortex (converted)): 363 ng·h/mL | MRT (Swiss albino, mouse, frontal cortex, ip, read-out: MRT, frontal cortex (converted)): 1.54 h | concentration at 5 min (Swiss albino, mouse, frontal cortex, ip, 1.25 mg/kg, 5 min, read-out: Concentration, frontal cortex (Mean)): 355 ng/mL | concentration at 5 min (Swiss albino, mouse, frontal cortex, ip, 1.25 mg/kg, 5 min, read-out: Concentration, frontal cortex (individual animals)): 408 ng/mL | concentration at 15 min (Swiss albino, mouse, frontal cortex, ip, 1.25 mg/kg, 15 min, read-out: Concentration, frontal cortex (Mean)): 251 ng/mL | concentration at 15 min (Swiss albino, mouse, frontal cortex, ip, 1.25 mg/kg, 15 min, read-out: Concentration, frontal cortex (individual animals)): 233 ng/mL | concentration at 30 min (Swiss albino, mouse, frontal cortex, ip, 1.25 mg/kg, 30 min, read-out: Concentration, frontal cortex (Mean)): 201 ng/mL | concentration at 30 min (Swiss albino, mouse, frontal cortex, ip, 1.25 mg/kg, 30 min, read-out: Concentration, frontal cortex (individual animals)): 209 ng/mL | concentration at 60 min (Swiss albino, mouse, frontal cortex, ip, 1.25 mg/kg, 60 min, read-out: Concentration, frontal cortex (Mean)): 95.8 ng/mL | concentration at 60 min (Swiss albino, mouse, frontal cortex, ip, 1.25 mg/kg, 60 min, read-out: Concentration, frontal cortex (individual animals)): 104 ng/mL | concentration at 120 min (Swiss albino, mouse, frontal cortex, ip, 1.25 mg/kg, 120 min, read-out: Concentration, frontal cortex (Mean)): 41 ng/mL | concentration at 120 min (Swiss albino, mouse, frontal cortex, ip, 1.25 mg/kg, 120 min, read-out: Concentration, frontal cortex (individual animals)): 40.3 ng/mL | concentration at 240 min (Swiss albino, mouse, frontal cortex, ip, 1.25 mg/kg, 240 min, read-out: Concentration, frontal cortex (Mean)): 12.8 ng/mL | concentration at 240 min (Swiss albino, mouse, frontal cortex, ip, 1.25 mg/kg, 240 min, read-out: Concentration, frontal cortex (individual animals)): 9.95 ng/mL | concentration at 480 min (Swiss albino, mouse, frontal cortex, ip, 1.25 mg/kg, read-out: Concentration, frontal cortex (Mean)): 2.98 ng/mL | concentration at 480 min (Swiss albino, mouse, frontal cortex, ip, 1.25 mg/kg, read-out: Concentration, frontal cortex (individual animals)): 1.96 ng/mL | Cmax (Swiss albino, mouse, frontal cortex, ip, 1.25 mg/kg, read-out: Cmax, frontal cortex): 355 ng/g | Tmax (Swiss albino, mouse, frontal cortex, ip, 1.25 mg/kg, read-out: tmax, frontal cortex (converted)): 5 min | Kp (Swiss albino, mouse, hippocampus, ip, read-out: Brain structure-to-plasma concentration ratio, hippocampus (H/P)): 12.6 | AUC(0-t) (Swiss albino, mouse, hippocampus, ip, read-out: AUC0→t, hippocampus (converted)): 436 ng·h/mL | MRT (Swiss albino, mouse, hippocampus, ip, read-out: MRT, hippocampus (converted)): 1.78 h | concentration at 5 min (Swiss albino, mouse, hippocampus, ip, 1.25 mg/kg, 5 min, read-out: Concentration, hippocampus (Mean)): 274 ng/mL
SMILES: Cn1c(=O)c2c(nc3n(CCCCN4CCN(c5cccc(C(F)(F)F)c5)CC4)ccn23)n(C)c1=O [AZ-861, 1,3-dimethyl-8-(4-(4-(3-(trifluoromethyl)phenyl)piperazin-1-yl)butyl)-1H-imidazo[2,1-f]purine-2,4(3H,8H)-dione]
Concentration, frontal cortex (individual animals) (15 min, 1.25 mg/kg): 230.57 ng/mL and 280.45 ng/mL and 263.78 ng/mL and 270.14 ng/mL and 226.47 ng/mL | Concentration, hippocampus (individual animals) (15 min, 1.25 mg/kg): 234.13 ng/mL and 378.52 ng/mL and 328.15 ng/mL and 322.19 ng/mL and 317.44 ng/mL | Concentration, plasma (individual animals) (15 min, 1.25 mg/kg): 44.70 ng/mL and 36.90 ng/mL and 42.80 ng/mL and 28.74 ng/mL and 38.15 ng/mL | Concentration, striatum (individual animals) (15 min, 1.25 mg/kg): 389.35 ng/mL and 271.77 ng/mL and 374.54 ng/mL and 325.44 ng/mL and 267.13 ng/mL | Concentration, frontal cortex (individual animals) (30 min, 1.25 mg/kg): 184.45 ng/mL and 218.78 ng/mL and 190.14 ng/mL and 183.24 ng/mL and 219.17 ng/mL | Concentration, hippocampus (individual animals) (30 min, 1.25 mg/kg): 192.35 ng/mL and 319.65 ng/mL and 217.19 ng/mL and 301.16 ng/mL and 245.19 ng/mL | Concentration, plasma (individual animals) (30 min, 1.25 mg/kg): 31.10 ng/mL and 30.60 ng/mL and 22.40 ng/mL and 15.17 ng/mL and 19.56 ng/mL and 30.17 ng/mL | Concentration, striatum (individual animals) (30 min, 1.25 mg/kg): 310.53 ng/mL and 258.57 ng/mL and 322.23 ng/mL and 318.66 ng/mL and 277.19 ng/mL | Concentration, frontal cortex (individual animals) (60 min, 1.25 mg/kg): 97.18 ng/mL and 109.15 ng/mL and 91.75 ng/mL and 83.56 ng/mL and 89.47 ng/mL | Concentration, hippocampus (individual animals) (60 min, 1.25 mg/kg): 110.60 ng/mL and 98.83 ng/mL and 88.50 ng/mL and 94.16 ng/mL and 88.17 ng/mL | Concentration, plasma (individual animals) (60 min, 1.25 mg/kg): 6.60 ng/mL and 4.60 ng/mL and 6.58 ng/mL and 5.72 ng/mL and 4.19 ng/mL | Concentration, striatum (individual animals) (60 min, 1.25 mg/kg): 69.53 ng/mL and 62.19 ng/mL and 51.27 ng/mL and 55.66 ng/mL and 48.45 ng/mL | Concentration, frontal cortex (individual animals) (120 min, 1.25 mg/kg): 41.78 ng/mL and 43.56 ng/mL and 39.11 ng/mL and 40.15 ng/mL and 41.18 ng/mL | Concentration, hippocampus (individual animals) (120 min, 1.25 mg/kg): 51.18 ng/mL and 56.82 ng/mL and 60.95 ng/mL and 47.42 ng/mL and 49.13 ng/mL | Concentration, plasma (individual animals) (120 min, 1.25 mg/kg): 2.36 ng/mL and 2.87 ng/mL and 3.33 ng/mL and 3.12 ng/mL and 1.97 ng/mL | Concentration, striatum (individual animals) (120 min, 1.25 mg/kg): 30.75 ng/mL and 29.92 ng/mL and 21.66 ng/mL and 19.44 ng/mL and 23.17 ng/mL | Concentration, frontal cortex (individual animals) (240 min, 1.25 mg/kg): 18.75 ng/mL and 10.56 ng/mL and 16.25 ng/mL and 9.48 ng/mL | Concentration, hippocampus (individual animals) (240 min, 1.25 mg/kg): 15.35 ng/mL and 24.14 ng/mL and 23.55 ng/mL and 16.56 ng/mL | Concentration, plasma (individual animals) (240 min, 1.25 mg/kg): 0.67 ng/mL and 0.70 ng/mL and 0.34 ng/mL and 0.41 ng/mL and 0.57 ng/mL and 0.66 ng/mL | Concentration, striatum (individual animals) (240 min, 1.25 mg/kg): 4.87 ng/mL and 5.95 ng/mL and 6.85 ng/mL and 4.94 ng/mL

— PMC7413516, “Antidepressant-like activity and safety profile evaluation of 1H-imidazo[2,1-f]purine-2,4(3H,8H)-dione derivatives as 5-HT1A receptor partial agonists” (PLoS ONE, 2020)
